Laboratory results from PMC10054240, “New Inhibitors of Respiratory Syncytial Virus (RSV) Replication Based on Monoterpene-Substituted Arylcoumarins” (Molecules, 2023).
“And” between values parts separate entries of the source, which are not always exact repeats. Equal values may be shown once. Read-outs that look alike come from different tables or passages of the source.

Key:
[1] = Cytotoxicity on non-infected HEp-2 cells, MTT assay; format: cell-based; conditions: human, non-infected HEp-2 cells, CC50 (50% cytotoxic concentration), MTT, 24 h
RSV A strain A2 = test: Antiviral activity against RSV A strain A2 in HEp-2 cells (ELISA virus titer); format: cell-based, respiratory syncytial virus; conditions: for IC50: HEp-2, RSV A, read-out: pIC50 (-lg[IC50]) (converted); for IC50 / pIC50 (-lg[IC50]): from Table 1 values; for pIC50 (-lg[IC50]): RSV A
HEp-2 cells = test: Cytotoxicity on non-infected HEp-2 cells, MTT assay; format: cell-based; conditions: read-out: CC50 (50% cytotoxic concentration), MTT, 24 h
[2] = human respiratory syncytial virus
[3] = human respiratory syncytial virus, HEp-2, read-out: EC50 (50% effective concentration)
[4] = read-out: EC50 (50% effective concentration)
[5] = human respiratory syncytial virus, read-out: EC50 (50% effective concentration), RSV A strain A2, HEp-2 cells

| EC50 (RSV A strain A2; [5]) | Structure (SMILES) | CC50 at 24 h [1] | antiviral activity against RSV A (in words) (RSV A strain A2) | IC50 (RSV A strain A2; [2]) | EC50 (RSV A strain A2; [3]) | CC50 (HEp-2 cells) | SI (selective index) (RSV A strain A2) | pIC50 (-lg[IC50]) (RSV A strain A2) | EC50 (RSV A strain A2; [4]) | EC50 (RSV A strain A2; human respiratory syncytial virus, HEp-2, read-out: EC50 (50% effective concentration), RSV A strain A2, HEp-2 cells) |
| --- | --- | --- | --- | --- | --- | --- | --- | --- | --- | --- |
| – | CC(C)=CCC/C(C)=C/COc1ccc2c(-c3ccccc3)cc(=O)oc2c1 [Compound 14a] | 805 ± 97.6 µM | moderate antiviral activity | 67.6 µM | 67.3 ± 9.1 µM | – | – | – | – | – |
| – | CC1(C)C2CC=C(COc3ccc4c(-c5ccccc5)cc(=O)oc4c3)C1C2 (stereo not drawn) [Compound 14c] | – | not active | – | – | 813 ± 32.4 µM | 3.5 | 3.63 | 234 ± 27.1 µM | – |
| – | CC1(C)C2CC=C(CCOc3ccc4c(-c5ccccc5)cc(=O)oc4c3)C1C2 (stereo not drawn) [Compound 14d] | 657 ± 20.4 µM | – | 83.2 µM | 82.5 ± 10.3 µM | – | 7.9 | – | – | – |
| – | CC1(C)[C@H]2CC=C(CCCCOc3ccc4c(-c5ccccc5)cc(=O)oc4c3)[C@@H]1C2 [Compound 14f, 7-(4-((1R,5S)-6,6-Dimethylbicyclo[3.1.1]hept-2-en-2-yl)butoxy)-4-phenyl-2H-chromen-2-one] | 1270 ± 180 µM | – | 112 µM | 111 ± 10.5 µM | – | 11.4 | – | – | – |
| – | CC(C)=CCC/C(C)=C/COc1ccc2c(-c3ccc(Br)cc3)cc(=O)oc2c1 [Compound 15a] | 8.8 ± 0.5 µM | – | 8.91 µM | 8.8 ± 0.7 µM | – | 1 | – | – | – |
| – | CC1(C)C2CC=C(COc3ccc4c(-c5ccc(Br)cc5)cc(=O)oc4c3)C1C2 (stereo not drawn) [Compound 15b] | 46.6 ± 8.6 µM | – | – | – | – | 3 | 4.82 | 15.1 ± 1.1 µM | – |
| – | CC1(C)C2CC=C(COc3ccc4c(-c5ccc(Br)cc5)cc(=O)oc4c3)C1C2 (stereo not drawn) [Compound 15c] | – | – | – | – | 90.8 ± 11 µM | 1.9 | 4.31 and 4.30 | 48.7 ± 7.6 µM | – |
| – | CC1(C)C2CC=C(CCOc3ccc4c(-c5ccc(Br)cc5)cc(=O)oc4c3)C1C2 (stereo not drawn) [Compound 15d] | 17.2 ± 2.6 µM | – | > 20 µM | > 20 µM | – | <0.8 | 4.70 | – | – |
| – | CC1(C)[C@H]2CC=C(CCCOc3ccc4c(-c5ccc(Br)cc5)cc(=O)oc4c3)[C@@H]1C2 [Compound 15e, 4-(4-Bromophenyl)-7-(3-((1R,5S)-6,6-dimethylbicyclo[3.1.1]hept-2-en-2-yl)propoxy)-2H-chromen-2-one] | 12.5 ± 1.4 µM | – | > 12.6 µM | > 12.5 µM | – | <1 | 4.90 | – | – |
| – | CC1(C)[C@H]2CC=C(CCCCOc3ccc4c(-c5ccc(Br)cc5)cc(=O)oc4c3)[C@@H]1C2 [Compound 15f, 4-(4-Bromophenyl)-7-(4-((1R,5S)-6,6-dimethylbicyclo[3.1.1]hept-2-en-2-yl)butoxy)-2H-chromen-2-one] | 91.3 ± 9.2 µM | – | 9.55 µM | 9.5 ± 0.8 µM | – | – | – | – | – |
| – | O=c1cc(-c2ccc(Br)cc2)c2ccc(OCc3ccccc3)cc2o1 [Compound 15g] | 265 ± 29.5 µM | – | 83.2 µM | 84 ± 3 µM | – | 3.2 | – | – | – |
| – | CC(C)=CCC/C(C)=C/COc1ccc2c(-c3ccc(F)cc3)cc(=O)oc2c1 [Compound 16a] | 273 ± 16 µM | – | 47.9 µM | 47.4 ± 8 µM | – | 5.8 | – | – | – |
| – | CC1(C)C2CC=C(COc3ccc4c(-c5ccc(F)cc5)cc(=O)oc4c3)C1C2 (stereo not drawn) [Compound 16b] | – | – | – | – | 297 ± 8.5 µM | 2.9 | 3.99 | 103 ± 7.1 µM | – |
| – | CC1(C)C2CC=C(COc3ccc4c(-c5ccc(F)cc5)cc(=O)oc4c3)C1C2 (stereo not drawn) [Compound 16c] | – | – | – | – | 20.5 ± 4.9 µM | 1.4 | 4.84 | 14.3 ± 2.9 µM | – |
| – | CC1(C)[C@H]2CC=C(CCCOc3ccc4c(-c5ccc(F)cc5)cc(=O)oc4c3)[C@@H]1C2 [Compound 16e, 7-(3-((1R,5S)-6,6-Dimethylbicyclo[3.1.1]hept-2-en-2-yl)propoxy)-4-(4-fluorophenyl)-2H-chromen-2-one] | 996 ± 8.2 µM | – | 110 µM | 110 ± 10.4 µM | – | 9 | – | – | – |
| – | CC1(C)[C@H]2CC=C(CCCCOc3ccc4c(-c5ccc(F)cc5)cc(=O)oc4c3)[C@@H]1C2 [Compound 16f, 7-(4-((1R,5S)-6,6-Dimethylbicyclo[3.1.1]hept-2-en-2-yl)butoxy)-4-(4-fluorophenyl)-2H-chromen-2-one] | 109 ± 10.5 µM | – | 9.33 µM | 9 µM | – | 11.8 | – | 9.2 ± 1.1 µM | – |
| – | O=c1cc(-c2ccc(F)cc2)c2ccc(OCc3ccccc3)cc2o1 [Compound 16g, 7-(Benzyloxy)-4-(4-fluorophenyl)-2H-chromen-2-one] | 655 ± 29.7 µM | – | 692 µM | – | – | <0.9 | 3.20 | – | > 690 µM |
| – | COc1ccc(-c2cc(=O)oc3cc(OC/C=C(\C)CCC=C(C)C)ccc23)cc1 [Compound 17a] | 339 ± 26.3 µM | – | 58.9 µM | 58.3 ± 8.5 µM | – | 5.8 | 4.20 | – | – |
| – | COc1ccc(-c2cc(=O)oc3cc(OCC4=CCC5CC4C5(C)C)ccc23)cc1 (stereo not drawn) [Compound 17b] | 12.4 ± 2.8 µM | – | > 12.6 µM | > 12 µM | – | <1 | 4.90 | – | – |
| – | COc1ccc(-c2cc(=O)oc3cc(OCC4=CCC5CC4C5(C)C)ccc23)cc1 (stereo not drawn) [Compound 17c] | – | – | – | – | 14.7 ± 2.9 µM | <1 | < 4.8 and 4.80 | > 15 µM | – |
| – | COc1ccc(-c2cc(=O)oc3cc(OCCC4=CCC5CC4C5(C)C)ccc23)cc1 (stereo not drawn) [Compound 17d] | 677 ± 22.9 µM | – | 64.6 µM | 64.1 ± 5.4 µM | – | 10.6 | – | – | – |
| 35.9 ± 5.7 µM | COc1ccc(-c2cc(=O)oc3cc(OCCCC4=CC[C@H]5C[C@@H]4C5(C)C)ccc23)cc1 [Compound 17e, 7-(3-((1R,5S)-6,6-Dimethylbicyclo[3.1.1]hept-2-en-2-yl)propoxy)-4-(4-methoxyphenyl)-2H-chromen-2-one] | > 100 µM | – | – | – | – | – | – | – | – |
| – | COc1ccc(-c2cc(=O)oc3cc(OCCCCC4=CC[C@H]5C[C@@H]4C5(C)C)ccc23)cc1 [Compound 17f, 7-(4-((1R,5S)-6,6-Dimethylbicyclo[3.1.1]hept-2-en-2-yl)butoxy)-4-(4-methoxyphenyl)-2H-chromen-2-one] | 117 ± 7 µM | – | > 12.6 µM | 10 µM | – | – | 4.97 | 10.8 ± 1 µM | – |
| – | COc1ccc(-c2cc(=O)oc3cc(OCc4ccccc4)ccc23)cc1 [Compound 17g] | 16.8 ± 3.2 µM | – | > 17 µM | > 17 µM | – | <1 | 4.80 | – | – |
| – | CC1(C)[C@H]2CC=C(CCNc3ccc4c(-c5ccccc5)cc(=O)oc4c3)[C@@H]1C2 [Compound 22, 7-(2-((1R,5S)-6,6-Dimethylbicyclo[3.1.1]hept-2-en-2-yl)ethylamino)-4-phenyl-2H-chromen-2-one] | 480 ± 18.4 µM | – | 79.4 µM | 79.9 ± 7.4 µM | – | 6 | – | – | – |
| 80.1 ± 13.5 µM | NC(=O)c1ncn([C@@H]2O[C@H](CO)[C@@H](O)[C@H]2O)n1 [Ribavirin, reference compound] | > 4000 µM | – | – | – | – | – | – | – | – |
